Measurements as given in article PMC9271048, “Probing strigolactone perception mechanisms with rationally designed small-molecule agonists stimulating germination of root parasitic weeds” (Nature Communications, 2022).

What was measured:
[1] = system: max4-1; test: Arabidopsis shoot branching assay; assay type: in vivo, Arabidopsis thaliana; details: max4-1, 1 μM; Fig. 4c source data
Protocol: For Arabidopsis root hair assay, Arabidopsis thaliana (Col-0) seeds were surface sterilized by using 1% NaClO solution for 60 s and 75% ethanol solution for 60 s, and then washed by sterilized distilled water five times. The sterilized seeds were sowed on 1/2 MS media (2.202 g/L Murashige and Skoog basal salts, 0.5 g/L MES, 10 g/L sucrose, and 10 g/L agar, pH 5.7) which contained indicated concentrations of compounds. 0.1% DMSO was used as a negative control. The plates were placed 4 days at 4 °C and then placed vertically under fluorescent white light (100–150 μmol m^−2 s^−1) with 16 h light and 8 h dark at 20 ± 1 °C for 15 days[17],[55]. The root hairs were imaged by OLYMPUS (U-HGLGPS), and the lengths were analyzed by ImageJ. The experiments were repeated three times. For Arabidopsis shoot branching assay: Col-0 and max4-1 seeds were used in this experiment. Seeds surface sterilization was sterilized as described above. The Arabidopsis seedlings were placed on top of the cut black microcentrifuge tubes filled with 1/2 MS. The tubes were placed 4 days at 4 °C and then moved to fluorescent white light (100–150 μmol m^−2 s^−1) with 16 h light and 8 h dark at 20 ± 1 °C for 7 days[26]. The germinated seedlings were grown on hydroponic culture solutions (containing indicated concentrations of 4a, (R)- and (S)-4a), with the solution containing 0.01% DMSO as the negative control. The solutions were renewed every week. After 4 weeks, the numbers of rosette axillaries were analyzed.

[2] = target: ShHTL7 T157Y (Striga hermonthica, UniProt A0A0M3PNA2, T157Y); test: YLG competitive inhibition, ShHTL7 mutant T157Y; assay type: biochemical
From the text: (§1) To clarify the dynamics of how the catalytic triad affects hydrolysis by ShHTL7, we performed MD simulations to study the differences between (R)-4a and (S)-4a (Supplementary Fig. 21). […] To further characterize our computational models, we performed mutation studies of the key residues in the active pockets that may have interactions with our molecules. Indeed, a number of the mutations of specific residues altered the IC50 values, supporting our simulated models (Supplementary Fig. 20b).
(§2) The excitation and emission wavelengths of YLG are 480 and 520 nm, respectively. We used a fluorescence spectrophotometer (CARY Eclipse) to detect the fluorescence intensity change of YLG during the enzymatic hydrolysis assay process. All the testing compounds and YLG were dissolved in DMSO and prepared as stock solutions just before use. […] The changes of fluorescence at 520 nm of each well were recorded every 1 min for 30 min. Using the reaction mixture without adding enzyme and tested compounds as the background control. After subtracting the background hydrolysis, a linear fluorescence increase in 8 min was used for further inspection. The IC50 values were determined via fitting relative inhibition percentages with the varying concentrations of compounds in Microsoft Excel.
(§3) Supplementary Fig. 20. […]

[3] = target: ShHTL7 T190G (Striga hermonthica, UniProt A0A0M3PNA2, T190G); test: YLG competitive inhibition, ShHTL7 mutant T190G; assay type: biochemical
From the text: as §1, §2, §3

[4] = target: ShHTL7 T121S (Striga hermonthica, UniProt A0A0M3PNA2, T121S); test: YLG competitive inhibition, ShHTL7 mutant T121S; assay type: biochemical
From the text: as §1, §2, §3

[5] = target: ShHTL7 T142K (Striga hermonthica, UniProt A0A0M3PNA2, T142K); test: YLG competitive inhibition, ShHTL7 mutant T142K; assay type: biochemical
From the text: as §1, §2, §3

[6] = target: ShHTL7 Y26F (Striga hermonthica, UniProt A0A0M3PNA2, Y26F); test: YLG competitive inhibition, ShHTL7 mutant Y26F; assay type: biochemical
From the text: as §1, §2, §3

[7] = target: ShHTL7 F134K (Striga hermonthica, UniProt A0A0M3PNA2, F134K); test: YLG competitive inhibition, ShHTL7 mutant F134K; assay type: biochemical
From the text: as §1, §2, §3

[8] = target: ShHTL7 T157A (Striga hermonthica, UniProt A0A0M3PNA2, T157A); test: YLG competitive inhibition, ShHTL7 mutant T157A; assay type: biochemical
From the text: as §1, §2, §3

[9] = target: ShHTL7 L161M (Striga hermonthica, UniProt A0A0M3PNA2, L161M); test: YLG competitive inhibition, ShHTL7 mutant L161M; assay type: biochemical
From the text: as §1, §2, §3

Chain of ShHTL7 T157Y (A0A0M3PNA2 whole entry T157Y): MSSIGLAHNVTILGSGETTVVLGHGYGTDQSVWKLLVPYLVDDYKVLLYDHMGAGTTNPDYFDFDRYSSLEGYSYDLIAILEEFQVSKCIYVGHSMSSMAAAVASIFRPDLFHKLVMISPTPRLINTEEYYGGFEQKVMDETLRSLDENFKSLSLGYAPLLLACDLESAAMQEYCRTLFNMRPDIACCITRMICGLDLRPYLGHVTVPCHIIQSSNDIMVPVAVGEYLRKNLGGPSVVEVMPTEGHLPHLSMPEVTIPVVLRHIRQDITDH
Chain of ShHTL7 T157A (A0A0M3PNA2 whole entry T157A): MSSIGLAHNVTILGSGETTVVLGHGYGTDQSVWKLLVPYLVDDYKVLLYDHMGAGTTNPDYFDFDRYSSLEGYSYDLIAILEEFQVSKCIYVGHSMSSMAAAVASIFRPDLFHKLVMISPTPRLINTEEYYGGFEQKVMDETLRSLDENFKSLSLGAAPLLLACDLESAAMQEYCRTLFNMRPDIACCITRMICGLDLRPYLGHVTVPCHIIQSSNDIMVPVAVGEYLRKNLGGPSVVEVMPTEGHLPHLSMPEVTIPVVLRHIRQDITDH
Chain of ShHTL7 T190G (A0A0M3PNA2 whole entry T190G): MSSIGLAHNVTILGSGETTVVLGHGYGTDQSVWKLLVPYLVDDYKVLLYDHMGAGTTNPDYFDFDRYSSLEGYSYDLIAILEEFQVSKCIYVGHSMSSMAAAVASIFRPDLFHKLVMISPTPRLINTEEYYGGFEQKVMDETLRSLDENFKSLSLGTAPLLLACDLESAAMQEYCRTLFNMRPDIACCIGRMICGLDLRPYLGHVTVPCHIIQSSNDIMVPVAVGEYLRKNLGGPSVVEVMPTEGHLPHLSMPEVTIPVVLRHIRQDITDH
Chain of ShHTL7 T142K (A0A0M3PNA2 whole entry T142K): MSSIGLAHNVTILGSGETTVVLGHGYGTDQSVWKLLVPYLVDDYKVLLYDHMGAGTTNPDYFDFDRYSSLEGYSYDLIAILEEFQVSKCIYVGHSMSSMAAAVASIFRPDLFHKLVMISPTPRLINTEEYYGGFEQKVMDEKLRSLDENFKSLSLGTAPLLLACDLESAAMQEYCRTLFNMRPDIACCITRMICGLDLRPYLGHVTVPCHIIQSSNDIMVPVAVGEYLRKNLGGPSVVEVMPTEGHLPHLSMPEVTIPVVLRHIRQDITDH
Chain of ShHTL7 L161M (A0A0M3PNA2 whole entry L161M): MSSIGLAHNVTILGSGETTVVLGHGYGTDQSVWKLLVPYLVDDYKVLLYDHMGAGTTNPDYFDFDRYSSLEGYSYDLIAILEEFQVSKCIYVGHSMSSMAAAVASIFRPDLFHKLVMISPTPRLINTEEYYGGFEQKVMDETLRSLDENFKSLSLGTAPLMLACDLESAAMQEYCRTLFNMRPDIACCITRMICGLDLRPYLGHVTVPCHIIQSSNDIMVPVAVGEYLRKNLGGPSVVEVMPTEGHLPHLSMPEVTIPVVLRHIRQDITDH
Chain of ShHTL7 F134K (A0A0M3PNA2 whole entry F134K): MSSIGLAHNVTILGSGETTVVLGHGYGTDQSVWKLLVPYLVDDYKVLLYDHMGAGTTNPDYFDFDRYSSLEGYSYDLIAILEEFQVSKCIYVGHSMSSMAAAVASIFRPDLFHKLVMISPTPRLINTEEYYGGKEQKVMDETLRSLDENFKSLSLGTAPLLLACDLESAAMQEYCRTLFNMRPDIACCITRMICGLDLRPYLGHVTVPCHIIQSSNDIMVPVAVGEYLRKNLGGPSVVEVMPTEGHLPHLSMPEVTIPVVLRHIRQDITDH
Chain of ShHTL7 Y26F (A0A0M3PNA2 whole entry Y26F): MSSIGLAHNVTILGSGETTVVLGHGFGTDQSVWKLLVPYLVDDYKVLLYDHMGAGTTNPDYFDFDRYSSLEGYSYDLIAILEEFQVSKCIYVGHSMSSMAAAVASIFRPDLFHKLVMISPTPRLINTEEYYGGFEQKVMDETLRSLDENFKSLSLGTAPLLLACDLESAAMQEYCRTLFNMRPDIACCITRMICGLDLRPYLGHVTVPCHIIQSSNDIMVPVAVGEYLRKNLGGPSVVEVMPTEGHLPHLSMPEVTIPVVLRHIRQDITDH
Chain of ShHTL7 T121S (A0A0M3PNA2 whole entry T121S): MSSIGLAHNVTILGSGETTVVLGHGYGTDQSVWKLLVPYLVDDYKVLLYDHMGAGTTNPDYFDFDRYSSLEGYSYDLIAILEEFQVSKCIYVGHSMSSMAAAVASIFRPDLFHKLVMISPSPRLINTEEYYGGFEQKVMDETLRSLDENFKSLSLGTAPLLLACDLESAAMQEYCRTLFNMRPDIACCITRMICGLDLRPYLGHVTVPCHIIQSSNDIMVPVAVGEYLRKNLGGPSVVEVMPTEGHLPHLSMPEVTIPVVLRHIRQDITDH

In the case of `CC1=CC(OC(=O)N2CCN(C(=O)COc3ccc(Br)cc3C)CC2)OC1=O` (stereo not shown) [4a], the “No. of axillary shoots, source data average” value (“No. of axillary shoots” for short) [1] is reported as 3.5.
`CC1=C[C@@H](OC(=O)N2CCN(C(=O)COc3ccc(Br)cc3C)CC2)OC1=O` [(R)-4a] was tested, and the IC50 [2] was 23.3 µM, the IC50 [3] was 26.4 µM and the “No. of axillary shoots” value [1] was 3.667. It also gave an IC50 [4] of 4900 nM, an IC50 [5] of 4130 nM and an IC50 [6] of 29.9 µM. It also gave an IC50 [7] of 62.1 µM, an IC50 [8] of 2610 nM and an IC50 [9] of 34.3 µM.
`CC1=C[C@H](OC(=O)N2CCN(C(=O)COc3ccc(Br)cc3C)CC2)OC1=O` [(S)-4a] was tested, and the IC50 [2] was 0.949 µM, the IC50 [3] was 0.575 µM and the “No. of axillary shoots” value [1] was 2.6. It also gave an IC50 [4] of 800 nM, an IC50 [5] of 203 nM and an IC50 [6] of 0.233 µM. It also gave an IC50 [7] of 0.613 µM, an IC50 [8] of 170 nM and an IC50 [9] of 0.666 µM.
